The results in this text go back to patent US9758524B2, “4-imidazopyridazin-1-yl-benzamides as Btk inhibitors” (Merck Sharp & Dohme B.V., priority 2011, dated 2017).

Assay [1] concerns the target FynT enzyme (Homo sapiens (Human), UniProt P06241). Briefly: FynT enzyme activity (IMAP fluorescence polarization assay). The format is biochemical. As to conditions: 60 min pre-incubation, 0.2 μM ATP. The method in brief:
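Human FynT pre-incubated with compounds 60 min at room temperature, then reacted 2 h at room temperature with fluorescein-labelled p34cdc2 peptide (100 nM final). Stopped with IMAP binding solution; fluorescence polarization read after 60 min. Activity as % of ±ATP control difference; EC50 by curve fitting.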
Background: Fluorescence polarisation rises when a labelled molecule tumbles more slowly, as on binding a larger partner.

For assay [2], the target named is Btk enzyme (His-Btk) (Homo sapiens (Human), UniProt Q06187). The experiment in a line: Btk enzyme activity (IMAP fluorescence polarization assay).
Sequence of Btk enzyme (His-Btk) (Q06187 whole entry): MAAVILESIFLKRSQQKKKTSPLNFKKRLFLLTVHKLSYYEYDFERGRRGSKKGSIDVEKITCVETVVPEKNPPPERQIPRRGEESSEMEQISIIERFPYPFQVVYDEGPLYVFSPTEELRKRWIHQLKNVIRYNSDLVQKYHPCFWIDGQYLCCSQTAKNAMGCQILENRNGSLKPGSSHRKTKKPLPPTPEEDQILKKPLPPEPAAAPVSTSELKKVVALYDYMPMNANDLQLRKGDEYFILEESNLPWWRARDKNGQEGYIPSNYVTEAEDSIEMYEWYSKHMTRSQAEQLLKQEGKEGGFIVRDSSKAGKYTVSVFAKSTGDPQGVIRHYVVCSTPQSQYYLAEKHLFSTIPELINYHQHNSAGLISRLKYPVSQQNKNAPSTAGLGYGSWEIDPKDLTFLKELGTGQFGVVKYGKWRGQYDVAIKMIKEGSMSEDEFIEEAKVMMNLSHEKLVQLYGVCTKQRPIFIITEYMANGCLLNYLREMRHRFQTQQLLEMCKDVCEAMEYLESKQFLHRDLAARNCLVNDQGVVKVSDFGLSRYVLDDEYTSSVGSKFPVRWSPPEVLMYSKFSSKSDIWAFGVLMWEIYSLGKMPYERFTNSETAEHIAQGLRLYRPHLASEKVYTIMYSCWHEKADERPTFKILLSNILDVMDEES
Experimental: Inhibition of kinase activity can be measured using the Immobilized Metal Assay for Phosphochemicals (IMAP) assay. IMAP is a homogeneous fluorescence polarization (FP) assay based on affinity capture of phosphorylated peptide substrates. IMAP uses fluorescein-labeled peptide substrates that, upon phosphorylation by a protein kinase, bind to so-called IMAP nanoparticles, which are derivatized with trivalent metal complexes.
Final peptide substrate concentration in assay is 50 nM.
Assay [3] deals with Lck enzyme (Homo sapiens (Human), UniProt P06239). Briefly: Lck enzyme activity (IMAP fluorescence polarization assay).
Sequence of Lck enzyme (P06239 whole entry): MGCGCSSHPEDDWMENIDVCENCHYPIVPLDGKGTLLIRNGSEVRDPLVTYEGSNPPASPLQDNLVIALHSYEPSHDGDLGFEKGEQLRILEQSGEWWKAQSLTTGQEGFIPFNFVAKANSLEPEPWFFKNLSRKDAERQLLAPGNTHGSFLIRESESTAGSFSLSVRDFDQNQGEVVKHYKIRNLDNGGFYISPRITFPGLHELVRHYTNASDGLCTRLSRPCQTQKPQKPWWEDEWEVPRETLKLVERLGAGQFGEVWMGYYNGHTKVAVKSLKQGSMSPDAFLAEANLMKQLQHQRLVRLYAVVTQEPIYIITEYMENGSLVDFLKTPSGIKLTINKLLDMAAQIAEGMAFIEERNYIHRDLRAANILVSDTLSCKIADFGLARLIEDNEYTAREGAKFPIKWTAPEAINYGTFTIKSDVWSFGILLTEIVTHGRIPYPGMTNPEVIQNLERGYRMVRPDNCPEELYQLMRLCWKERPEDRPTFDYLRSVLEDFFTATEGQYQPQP
For assay [4], the target named is Src enzyme (Homo sapiens (Human), UniProt P12931). Briefly: Src enzyme activity (IMAP fluorescence polarization assay). The note with it: read-out: EC50 Src activity values; IMAP, 60 min pre-incubation, 4 μM ATP.
Sequence of Src enzyme (P12931 whole entry, looked up): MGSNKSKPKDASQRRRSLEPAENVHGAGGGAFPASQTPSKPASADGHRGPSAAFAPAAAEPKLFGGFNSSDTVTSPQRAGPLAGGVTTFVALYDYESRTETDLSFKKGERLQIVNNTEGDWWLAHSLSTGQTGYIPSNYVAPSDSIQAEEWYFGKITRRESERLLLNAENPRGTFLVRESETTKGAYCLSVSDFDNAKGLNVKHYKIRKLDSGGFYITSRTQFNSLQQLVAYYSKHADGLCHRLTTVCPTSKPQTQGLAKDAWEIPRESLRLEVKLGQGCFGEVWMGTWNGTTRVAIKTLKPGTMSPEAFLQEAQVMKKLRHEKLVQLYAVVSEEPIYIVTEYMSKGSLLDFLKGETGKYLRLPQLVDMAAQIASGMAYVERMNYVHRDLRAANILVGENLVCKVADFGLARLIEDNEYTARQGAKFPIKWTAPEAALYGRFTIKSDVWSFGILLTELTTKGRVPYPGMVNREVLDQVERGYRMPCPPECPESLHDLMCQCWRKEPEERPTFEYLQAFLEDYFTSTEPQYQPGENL
Assay [5] deals with Lyn enzyme (Homo sapiens (Human), UniProt P07948). Briefly: Lyn enzyme activity (IMAP fluorescence polarization assay). As to conditions: for EC50 Lyn activity values: bin bound in μM.
Sequence of Lyn enzyme (P07948 whole entry): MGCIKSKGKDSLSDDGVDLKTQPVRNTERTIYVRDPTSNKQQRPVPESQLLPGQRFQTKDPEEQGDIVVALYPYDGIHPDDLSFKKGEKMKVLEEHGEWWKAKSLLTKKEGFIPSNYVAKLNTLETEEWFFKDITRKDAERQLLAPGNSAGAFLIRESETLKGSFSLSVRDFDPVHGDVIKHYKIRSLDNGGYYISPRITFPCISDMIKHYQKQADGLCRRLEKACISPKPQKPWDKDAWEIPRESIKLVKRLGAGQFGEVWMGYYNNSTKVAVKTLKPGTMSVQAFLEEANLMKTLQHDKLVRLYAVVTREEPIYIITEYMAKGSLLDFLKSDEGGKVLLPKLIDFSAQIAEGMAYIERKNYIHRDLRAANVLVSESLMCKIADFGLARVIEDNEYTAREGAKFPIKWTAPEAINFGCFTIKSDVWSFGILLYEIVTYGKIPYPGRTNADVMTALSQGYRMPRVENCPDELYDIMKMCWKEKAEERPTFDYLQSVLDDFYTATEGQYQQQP
The mark [6] stands for this setting: IMAP, 60 min pre-incubation, 5 μM ATP, bin bound in nM.
[7] abbreviates: read-out: EC50 Lck activity values, IMAP, 60 min pre-incubation, 6 μM ATP, bin bound in μM.
The mark [8] stands for this setting: read-out: EC50 Lyn activity values, 60 min pre-incubation, 2 μM ATP, bin bound in μM.
The mark [9] stands for this setting: read-out: EC50 Btk activity values, IMAP, 60 min pre-incubation, 5 μM ATP, bin bound in nM.
The mark [10] stands for this setting: IMAP, 60 min pre-incubation, 6 μM ATP, bin bound in μM.
Setting [11] is: 60 min pre-incubation, 2 μM ATP.
Setting [12] is: EC50 Lyn activity values, 60 min pre-incubation, 2 μM ATP, bin bound in nM.

Where two headings read alike, the source gives them in different places. Where only a bound is given, the exact number is not on record here.

Broadly, the EC50 is the concentration at which the effect is half-maximal.

Sequence of FynT enzyme (P06241 other isoform, or with tags, fused parts or gaps): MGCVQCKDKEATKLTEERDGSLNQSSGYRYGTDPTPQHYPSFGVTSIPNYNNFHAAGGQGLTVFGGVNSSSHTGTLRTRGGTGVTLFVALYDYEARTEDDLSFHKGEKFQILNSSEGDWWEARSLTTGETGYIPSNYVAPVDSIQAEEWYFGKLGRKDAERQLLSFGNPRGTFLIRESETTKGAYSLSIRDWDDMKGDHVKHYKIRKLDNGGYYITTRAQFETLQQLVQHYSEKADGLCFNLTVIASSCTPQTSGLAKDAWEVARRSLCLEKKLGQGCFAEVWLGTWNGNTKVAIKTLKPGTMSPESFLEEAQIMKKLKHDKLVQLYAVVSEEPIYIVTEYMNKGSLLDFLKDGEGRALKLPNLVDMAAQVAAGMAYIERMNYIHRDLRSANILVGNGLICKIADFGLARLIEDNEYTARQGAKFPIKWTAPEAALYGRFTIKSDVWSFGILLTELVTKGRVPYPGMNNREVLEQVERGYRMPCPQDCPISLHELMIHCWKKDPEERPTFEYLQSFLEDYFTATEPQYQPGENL

For the compound `CC#CC(=O)NCc1nc(-c2ccc(C(=O)Nc3ccccn3)cc2)c2c(N)nccn12` [Example 112, 4-(8-amino-3-(but-2-ynamidomethyl)imidazo[1,5-a]pyrazin-1-yl)-N-(pyridin-2-yl)benzamide], the EC50 in assay [1] is no less than 1 µM; in assay [2], 10 to 100 nM; in assay [3] (setting [7]), no less than 1 µM; in assay [4] it was no less than 1 µM; in assay [5] (setting [8]), no less than 1 µM. Further, the “EC50 Btk activity values” in assay [2] (setting [6]) is given as less than 100 nM.
For the compound `CC#CC(=O)N(C)[C@@H](C)c1nc(-c2ccc(C(=O)Nc3cc(CCC)ccn3)cc2)c2c(N)nccn12` [Example 113, (S)-4-(8-amino-3-(1-(N-methylbut-2-ynamido)ethyl)imidazo[1,5-a]pyrazin-1-yl)-N-(4-propylpyridin-2-yl)benzamide], the 50% effective concentration (EC50) in assay [1] was no less than 1 µM; in assay [2], 10 to 100 nM; in assay [3] (setting [7]), no less than 1 µM; in assay [4] it was no less than 1 µM; in assay [5] (setting [8]), no less than 1 µM. Further, the “EC50 Btk activity values” in assay [2] (setting [6]) is given as less than 100 nM.
As for `CCCc1ccnc(NC(=O)c2ccc(-c3nc([C@@H]4CCCCN4C(=O)/C=C/COC)n4ccnc(N)c34)cc2F)c1` [Example 114, (S,E)-4-(8-amino-3-(1-(4-methoxybut-2-enoyl)piperidin-2-yl)imidazo[1,5-a]pyrazin-1-yl)-2-fluoro-N-(4-propylpyridin-2-yl)benzamide], the EC50 in assay [1] was no less than 1 µM; in assay [2] it was 10 to 100 nM; in assay [3] (setting [7]), no less than 1 µM; in assay [4], no less than 1 µM; in assay [5] (setting [8]), no less than 1 µM. Moreover, the “EC50 Btk activity values” in assay [2] (setting [6]) is less than 100 nM.
With `Nc1nccn2c([C@@H]3CCCCN3C(=O)c3ccnc(Cl)n3)nc(-c3ccc(C(=O)Nc4cc(C(F)(F)F)ccn4)cc3)c12` [Example 115, (S)-4-(8-amino-3-(1-(2-chloropyrimidine-4-carbonyl)piperidin-2-yl)imidazo[1,5-a]pyrazin-1-yl)-N-(4-(trifluoromethyl)pyridin-2-yl)benzamide], the EC50 in assay [1] was no less than 1 µM; in assay [2] (setting [9]), less than 10 nM; in assay [3] (setting [7]), no less than 1 µM; in assay [4], no less than 1 µM; in assay [5] (setting [8]), no less than 1 µM.
Take `CC#CC(=O)N1CCCC[C@H]1c1nc(-c2ccc(C(=O)Nc3ncc(CC)s3)cc2)c2c(N)nccn12` [Example 116, (S)-4-(8-amino-3-(1-but-2-ynoylpiperidin-2-yl)imidazo[1,5-a]pyrazin-1-yl)-N-(5-ethylthiazol-2-yl)benzamide]: the EC50 is no less than 1 µM in assay [1]; less than 10 nM in assay [2] (setting [9]); no less than 1 µM in assay [3] (setting [7]); no less than 1 µM in assay [4]; no less than 1 µM in assay [5] (setting [8]).
For the compound `C=CC(=O)N1CCCC[C@H]1c1nc(-c2ccc(C(=O)Nc3ncc(CC)s3)cc2)c2c(N)nccn12` [Example 117, (S)-4-(3-(1-acryloylpiperidin-2-yl)-8-aminoimidazo[1,5-a]pyrazin-1-yl)-N-(5-ethylthiazol-2-yl)benzamide], the EC50 is no less than 1 µM in assay [1]; less than 10 nM in assay [2] (setting [9]); no less than 1 µM in assay [3] (setting [7]); no less than 1 µM in assay [4]; no less than 1 µM in assay [5] (setting [8]).
`CCc1cnc(NC(=O)c2ccc(-c3nc([C@@H]4CCCCN4C(=O)c4ccnc(Cl)n4)n4ccnc(N)c34)cc2)s1` [Example 118, (S)-4-(8-amino-3-(1-(2-chloropyrimidine-4-carbonyl)piperidin-2-yl)imidazo[1,5-a]pyrazin-1-yl)-N-(5-ethylthiazol-2-yl)benzamide]: the EC50 in assay [1] was no less than 1 µM; in assay [2] (setting [9]) it was less than 10 nM; in assay [3] (setting [7]), no less than 1 µM; in assay [4], no less than 1 µM; in assay [5] (setting [8]), no less than 1 µM.
With `Nc1nccn2c([C@@H]3CCCN3C(=O)c3ccnc(Cl)n3)nc(-c3ccc(C(=O)Nc4cc(C(F)(F)F)ccn4)cc3)c12` [Example 119, (S)-4-(8-amino-3-(1-(2-chloropyrimidine-4-carbonyl)pyrrolidin-2-yl)imidazo[1,5-a]pyrazin-1-yl)-N-(4-(trifluoromethyl)pyridin-2-yl)benzamide], the EC50 in assay [1] is no less than 1 µM; in assay [2] it was 10 to 100 nM; in assay [3] (setting [7]) it was no less than 1 µM; in assay [4] it was no less than 1 µM; in assay [5] (setting [8]), no less than 1 µM. Also, in assay [2] (setting [6]), the “EC50 Btk activity values” is less than 100 nM.
On to `COC/C=C/C(=O)N1CCOC[C@H]1c1nc(-c2ccc(C(=O)Nc3ccccn3)cc2)c2c(N)nccn12` [Example 120, (R,E)-4-(8-amino-3-(4-(4-methoxybut-2-enoyl)morpholin-3-yl)imidazo[1,5-a]pyrazin-1-yl)-N-(pyridin-2-yl)benzamide], for which the EC50 in assay [1] was no less than 1 µM; in assay [2] (setting [9]) it was less than 10 nM; in assay [3] (setting [7]), no less than 1 µM; in assay [4], no less than 1 µM; in assay [5] (setting [8]) it was no less than 1 µM.
Consider `CCCc1ccnc(NC(=O)c2ccc(-c3nc([C@@H]4CCCCN4C(=O)/C=C/COC)n4ccnc(N)c34)cc2)c1` [Example 121, (S,E)-4-(8-amino-3-(1-(4-methoxybut-2-enoyl)piperidin-2-yl)imidazo[1,5-a]pyrazin-1-yl)-N-(4-propylpyridin-2-yl)benzamide], for which the 50% effective concentration (EC50) in assay [1] was no less than 1 µM; in assay [2] (setting [9]) it was less than 10 nM; in assay [3] (setting [7]) it was no less than 1 µM; in assay [4] it was no less than 1 µM; in assay [5] (setting [8]), no less than 1 µM.
Take `C=CC(=O)N1CCC[C@H]1c1nc(-c2ccc(C(=O)Nc3cc(C#N)ccn3)cc2)c2c(N)nccn12` [Example 122, (S)-4-(3-(1-acryloylpyrrolidin-2-yl)-8-aminoimidazo[1,5-a]pyrazin-1-yl)-N-(4-cyanopyridin-2-yl)benzamide]: the half-maximal effective concentration (EC50) in assay [1] was no less than 1 µM; in assay [2] (setting [9]), less than 10 nM; in assay [3] it was 0.1 to 1 µM; in assay [4], no less than 1 µM; in assay [5] (setting [8]) it was no less than 1 µM. In assay [3] (setting [10]), the “EC50 Lck activity values” is less than 1 µM.
Consider `CC#CC(=O)N1CCC[C@H]1c1nc(-c2ccc(C(=O)Nc3cc(OC)ccn3)cc2)c2c(N)nccn12` [Example 123, (S)-4-(8-amino-3-(1-but-2-ynoylpyrrolidin-2-yl)imidazo[1,5-a]pyrazin-1-yl)-N-(4-methoxypyridin-2-yl)benzamide], for which the EC50 in assay [1] was no less than 1 µM; in assay [2] (setting [9]), less than 10 nM; in assay [3] (setting [7]) it was no less than 1 µM; in assay [4] it was no less than 1 µM; in assay [5] (setting [8]), no less than 1 µM.
On to `C=CC(=O)N1CCC[C@H]1c1nc(-c2ccc(C(=O)Nc3cc(C)ccn3)cc2)c2c(N)nccn12` [Example 124, (S)-4-(3-(1-acryloylpyrrolidin-2-yl)-8-aminoimidazo[1,5-a]pyrazin-1-yl)-N-(4-methylpyridin-2-yl)benzamide], for which the EC50 is no less than 1 µM in assay [1]; less than 10 nM in assay [2] (setting [9]); 0.1 to 1 µM in assay [3]; no less than 1 µM in assay [4]; 0.1 to 1 µM in assay [5] (setting [12]). In assay [3] (setting [10]), the “EC50 Lck activity values” is less than 1 µM. The “EC50 Lyn activity values” in assay [5] (setting [11]) is less than 1 µM.
On to `C=CC(=O)N1CCC[C@H]1c1nc(-c2ccc(C(=O)Nc3cc(CCC)ccn3)cc2)c2c(N)nccn12` [Example 125, (S)-4-(3-(1-acryloylpyrrolidin-2-yl)-8-aminoimidazo[1,5-a]pyrazin-1-yl)-N-(4-propylpyridin-2-yl)benzamide], for which the concentration for a half-maximal effect (EC50) in assay [1] is no less than 1 µM; in assay [2] (setting [9]), less than 10 nM; in assay [3], 0.1 to 1 µM; in assay [4], no less than 1 µM; in assay [5] (setting [12]), 0.1 to 1 µM. In assay [3] (setting [10]), the “EC50 Lck activity values” was less than 1 µM. Further, the “EC50 Lyn activity values” in assay [5] (setting [11]) is less than 1 µM.
Consider `C=CC(=O)N1CCC[C@H]1c1nc(-c2ccc(C(=O)Nc3cc(CC)ccn3)cc2)c2c(N)nccn12` [Example 126, (S)-4-(3-(1-acryloylpyrrolidin-2-yl)-8-aminoimidazo[1,5-a]pyrazin-1-yl)-N-(4-ethylpyridin-2-yl)benzamide], for which the EC50 is no less than 1 µM in assay [1]; less than 10 nM in assay [2] (setting [9]); 0.1 to 1 µM in assay [3]; no less than 1 µM in assay [4]; 0.1 to 1 µM in assay [5] (setting [12]). Further, the “EC50 Lck activity values” in assay [3] (setting [10]) was less than 1 µM. Besides, the “EC50 Lyn activity values” in assay [5] (setting [11]) was less than 1 µM.
Regarding `COC/C=C/C(=O)N1CCC[C@H]1c1nc(-c2ccc(C(=O)Nc3cc(C(F)(F)F)ccn3)cc2)c2c(N)nccn12` [Example 128, (S,E)-4-(8-amino-3-(1-(4-methoxybut-2-enoyl)pyrrolidin-2-yl)imidazo[1,5-a]pyrazin-1-yl)-N-(4-(trifluoromethyl)pyridin-2-yl)benzamide], the EC50 in assay [1] is no less than 1 µM; in assay [2] (setting [9]), less than 10 nM; in assay [3] (setting [7]), no less than 1 µM; in assay [4] it was no less than 1 µM; in assay [5] (setting [8]) it was no less than 1 µM.
Consider `Cc1ccnc(NC(=O)c2ccc(-c3nc([C@@H]4CCCN4C(=O)c4ccnc(Cl)n4)n4ccnc(N)c34)cc2)c1` [Example 129, (S)-4-(8-amino-3-(1-(2-chloropyrimidine-4-carbonyl)pyrrolidin-2-yl)imidazo[1,5-a]pyrazin-1-yl)-N-(4-methylpyridin-2-yl)benzamide], for which the EC50 in assay [1] was no less than 1 µM; in assay [2] (setting [9]), less than 10 nM; in assay [3] (setting [7]), no less than 1 µM; in assay [4], no less than 1 µM; in assay [5] (setting [8]) it was no less than 1 µM.
